A short description of data set [1]: Oral toxicity (mortality) in the mouse, Table 1. It is filed as in vivo. The following applies: mouse, in vivo, po, 1000 mg/kg, Swiss mice, 14 days. In outline:
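Groups of 5 male and 5 female specific-pathogen-free Swiss mice, fasted 24 hours, dosed intragastrically in 6% gum arabic at 0.1 ml per 10 g body weight. Mortality percentage was recorded at 14 days as a function of dose.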

A further data set deals with phenylbenzoquinone (PBQ). Briefly: Analgesic activity using phenylbenzoquinone (PBQ) as noxious agent, Table 2. In kind it is in vivo, male Swiss mouse. The following applies: Mus musculus. In outline:
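Male Swiss mice were dosed with test products suspended in 6% gum base. Analgesic activity is given as % versus dose in mg/kg.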

The subject of data set [2] is number of escapes the animal made in 5 minutes. Briefly: Escape test, Table 3. It is filed as in vivo, mouse. The settings on record: Mus musculus, po, 5 min, read-out: % of activity (variation of the number of escapes). From the text: The products of the invention were always administered orally in 6% gum base.
The notation NS signifies that the difference between the results noted for the product and the results noted for the excipient alone is not significant at the threshold 0.05 according to the Student t Test.

The test system of data set [3] is stereotype induced by apomorphine. Briefly: Antagonism of the stereotype induced by apomorphine, Table 4. It is filed as in vivo. The source says:
The psychotropic profile of the present invention products has been characterized with the animals in numerous tests some of whose results are shown hereinafter. The products of the invention were always administered orally in 6% gum base.
% of activity vis-a-vis the stereotype
induced by apomorphine as a function of the
administered dose expressed in mg/kg

Data set [4] relates to number of displacements of the animal. Briefly: Four plates test (anxiolytic activity), Table 5. In kind it is in vivo. The following applies: oral, mouse. In outline:
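Mouse four-plates anxiolytic test with compounds given orally in 6% gum base. Read-out is percent increase in the number of displacements of the animal, by dose in mg/kg.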

Data set [5] relates to trembling induced by oxotremorine. Briefly: Antagonism of trembling induced by oxotremorine, Table 7. In kind it is in vivo. The settings on record: po, read-out: % of inhibition of trembling induced by oxotremorine. In short, it runs like this:
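Animal test of antagonism of oxotremorine-induced trembling; compounds given orally in 6% gum base. Value is % inhibition of trembling at each dose in mg/kg.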

For the next data set, the system named is catalepsy. Briefly: Catalepsy. In kind it is in vivo. The following applies: 400 and 600 mg/kg.

Structures are written as SMILES.

By mortality is commonly meant the percentage killed. `CN(C)CCc1cc2c(cc1N=CC=Cc1ccccc1)OCO2` [COR 01 176]: in data set [1], the mortality at 336 h was 0%. Moreover, in the data set on phenylbenzoquinone (PBQ) (read-out: % of analgesic activity, 100 mg/kg, male Swiss mouse, PBQ), the inhibition in vivo at 100 mg/kg was 23%. In the data set with phenylbenzoquinone (PBQ) (read-out: % of analgesic activity, 200 mg/kg, male Swiss mouse, PBQ), the inhibition in vivo at 200 mg/kg was found to be 39%. Moreover, in data set [2], the change in vivo at 0.5 mg/kg is -29%, the change in vivo at 1 mg/kg was -40%, the change in vivo at 3 mg/kg is -39% and the change in vivo at 5 mg/kg is -33%. Also, in data set [2], the change in vivo at 25 mg/kg is -32%, the change in vivo at 50 mg/kg is -37%, the change in vivo at 100 mg/kg is -33% and the change in vivo at 200 mg/kg was -43%. Further, the “% of activity vis-a-vis the stereotype induced by apomorphine” value in data set [3] (200 mg/kg, oral) is listed as -64%. Also, the “antagonism vis-a-vis the stereotype with apomorphine” value in data set [3] (in words) is reported as “manifest an antagonism”. In addition, the “% of increase in the number of displacements of the animal” value (“% of increase” for short) in data set [4] (3 mg/kg) is given as “+101%”. For the same compound, the “% of increase” value in data set [4] (5 mg/kg) was “+117%”. For the same compound, in data set [4] (10 mg/kg), the “% of increase” value is listed as “+72%”. For the same compound, in data set [4] (20 mg/kg), the “% of increase” value is reported as “+72%”. The “% of increase” value in data set [4] (25 mg/kg) was “+66%”. Further, in data set [5], the change in vivo at 50 mg/kg is -40%, the change in vivo at 100 mg/kg was -50% and the change in vivo at 200 mg/kg was -20%. The catalepsy result in the data set on catalepsy is listed as “slight catalepsy”.
